This is an account of results in patent US12544428B2, “Controlled-release CNP agonists with reduced side-effects” (ASCENDIS PHARMA GROWTH DISORDERS A/S, priority 2016, dated 2026).

The half-life is how long it takes for the measured level to halve.

Series [1] in a line: Pharmacokinetic profile of CNP-38 after subcutaneous single-dose administration to cynomolgus monkeys. Type of series: in vivo. The method, then: This study was performed in order to test the pharmacokinetics of CNP-38 after subcutaneous (s.c.) administration in cynomolgus monkeys. […] Blood samples were collected at 5, 10, 15, 30, 45 min and 1, 2, 4, 8 hours upon dose.
Method: Plasma levels of CNP were analysed using a commercially available competitive radioimmuno-assay (RK-012-03, Phoenix Pharmaceuticals, CA). The assay was applied essentially as described by the manufacturer. The assay is based on competitive binding between 125I-labelled CNP (supplied in the kit) and unlabeled CNP (from study sample or calibrants) to an anti-CNP antibody. When the concentration of CNP in the sample increases, the amount of 125I-labelled CNP that is able to bind to the antibody decreases. By measuring the amount of 125I-labelled CNP bound as a function of the concentration of peptide, it is possible to construct a calibration curve from which the concentration of peptide in the sample can be determined.
A few changes to the supplied assay protocol were made. These changes included using in-house CNP calibrant and QC samples to secure consistency between assay runs. In order to shorten the duration of the assay, the initial incubation of samples with antibodies was performed at room temperature for 5 hours (instead of 16-24 hours at 4° C.). Due to matrix effects in monkey plasma, the minimal required dilution was set at 1:10, yielding an assay range of 150-1080 pg/mL CNP.

Series [2] in a line: Evaluation of cardiovascular effects in the conscious telemetered mouse (subcutaneous administration). Format: in vivo, Crl:CD1(ICR) mice. The following applies: 800 μg CNP-38 (eq)/kg sc; for MAP: mean ± SD, n = 4. The source says:
The purpose of this study was to evaluate the haemodynamic side effects of 11i at dose level equivalent to a CNP-38 dose level eliciting haemodynamic side effects (decrease in blood pressure) in the telemetered mouse.
Male Crl:CD1(ICR) mice (age range 8-13 weeks and body weight range 27.3-35.6 g at start of dosing) were surgically implanted with a TA11PA-C10 telemetry transmitter (Data Sciences International (DSI)) in the carotid artery. The body of the transmitter was placed subcutaneously in the lateral flank of the mouse. The mice were dosed subcutaneously in a latin square crossover design with at least 72 hours between dosing occasions. Mice were dosed with 1) vehicle (10 mM succinate, 46.0 g/L mannitol, pH 4.00), 2) CNP-38 (800 μg CNP-38/kg, 10 mM succinate, 46.0 g/L mannitol, pH 4.00) or 3) 11i (800 μg CNP-38 eq/kg, 10 mM succinate, 46.0 g/L mannitol, pH 4.00). At least four mice were included at each dose level. Blood pressure (systolic (SAP), diastolic (DAP) and mean (MAP) and heart rate (HR, derived from blood pressure), were recorded using a digital data capture system linked with a DSITM Ponemah data acquisition and analysis system. The capture system allowed recording of the cardiovascular parameters whilst the mice were in individual cages. On the day of each test session the animals were weighed and a predose recording was performed for at least 60 min prior to dosing. Each mouse was returned to the home cage and the cardiovascular parameters were recorded for approximately 48 hours postdose. Blood pressure and HR were reported at the following time points: −30, −20, −10, 5, 15 and 30 min postdose and 1, 2, 6, 12, 18, 24, 30, 36, 42 and 48 hours postdose. Each time point was presented as the average value of five minute's recording prior to the time point. The monitoring period was selected to cover exposure to the test items both prior to and after Tmax.

For series [3] the following is noted: CNP injection, healthy volunteers; cited from earlier work.
The target in another series is recombinant human NEP (Homo sapiens, UniProt P08473). The following applies: pH 7.4.
A further series concerns the target T1, NPR-B receptor (Mus musculus, UniProt Q6VVW5).
T1 construct: These cells express endogenously the NPR-B receptor on the cell surface; endogenous in cells; host or cells: NIH-3T3 (murine embryo fibroblast)
T1 sequence (Q6VVW5 23-1047 limits assumed): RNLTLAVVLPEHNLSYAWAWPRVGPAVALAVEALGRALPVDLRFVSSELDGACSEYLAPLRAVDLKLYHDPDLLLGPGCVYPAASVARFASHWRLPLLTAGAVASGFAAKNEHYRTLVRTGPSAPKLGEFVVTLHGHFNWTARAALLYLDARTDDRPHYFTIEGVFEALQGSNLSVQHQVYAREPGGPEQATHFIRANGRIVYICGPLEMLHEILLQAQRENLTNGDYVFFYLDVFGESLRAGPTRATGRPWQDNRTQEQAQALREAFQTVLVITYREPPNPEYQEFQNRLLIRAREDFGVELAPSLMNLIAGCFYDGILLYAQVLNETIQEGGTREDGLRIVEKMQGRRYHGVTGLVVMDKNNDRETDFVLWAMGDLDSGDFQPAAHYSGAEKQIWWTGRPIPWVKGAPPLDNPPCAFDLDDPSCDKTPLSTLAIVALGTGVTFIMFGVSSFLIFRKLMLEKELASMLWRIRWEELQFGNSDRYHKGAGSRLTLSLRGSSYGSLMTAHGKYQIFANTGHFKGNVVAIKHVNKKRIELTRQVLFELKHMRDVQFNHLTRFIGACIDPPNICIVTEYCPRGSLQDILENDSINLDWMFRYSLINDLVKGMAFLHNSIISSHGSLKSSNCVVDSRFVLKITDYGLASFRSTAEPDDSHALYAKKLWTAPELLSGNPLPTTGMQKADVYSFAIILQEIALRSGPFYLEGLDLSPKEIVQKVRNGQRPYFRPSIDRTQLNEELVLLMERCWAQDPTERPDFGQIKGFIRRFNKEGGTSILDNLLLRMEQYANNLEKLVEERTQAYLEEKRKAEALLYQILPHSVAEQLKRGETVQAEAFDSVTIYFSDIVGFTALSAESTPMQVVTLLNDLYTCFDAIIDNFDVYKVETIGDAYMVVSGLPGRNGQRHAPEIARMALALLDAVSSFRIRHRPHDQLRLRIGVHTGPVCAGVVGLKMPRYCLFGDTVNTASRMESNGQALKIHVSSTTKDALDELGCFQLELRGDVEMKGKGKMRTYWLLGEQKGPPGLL
The series can be described thus: Functional cGMP stimulation in NIH-3T3 cells with CNP variants. Format: cell-based, murine. The conditions noted are these: residual NPR-B activity vs non-PEGylated CNP-38, cGMP. The method, then: As used herein “EC50” with regard to controlled-release CNP agonist and CNP agonist refers to the concentration of controlled-release CNP agonist and CNP agonist with which a half-maximum cGMP production of NPR-B is elicited. NPR-B activity in the form of its EC50 of the controlled-release CNP agonist, of the released CNP agonist and of CNP-22 is measured by cultivating NIH-3T3 (Murine Embryo Fibroblast cell line) cells which express NPR-B on their cell surface, incubating the cells with the controlled-release CNP agonist, the corresponding released CNP agonist or CNP-22, respectively, and determining the intracellular production of the second messenger cGMP with a standard cGMP assay. In particular the assay is performed as follows: • (1) murine NIH-3T3 cells expressing endogenous NPR-B are cultivated in DMEM F-12 medium with 5% FBS and 5 mM glutamine at 37° C. and 5% CO2; • (2) for each assay 50,000 cells are resuspended in Dulbecco's PBS with IBMX and incubated with either the controlled-release CNP agonist, the corresponding released CNP agonist or CNP-22; each in different concentrations; • (3) after incubating for 30 min at 37° C. and 5% CO2, the cells are lysed and cGMP levels are determined; and • (4) generating an EC50 value from the determined cGMP levels.
Functional activity of CNP variants were determined in a cell-based assay with NIH-3T3 cells (Murine Embryo Fibroblast cell line). These cells express endogenously the NPR-B receptor on the cell surface. Stimulation of the NPR-B receptor with CNP leads to intracellular production of the second messenger cGMP which is detected with a commercially available cGMP assay. NIH-3T3 cells were routinely cultured in DMEM F-12 medium with 5% FBS and 5 mM glutamine at 37° C. and 5% CO2. For each assay, 50,000 cells were resuspended in stimulation buffer (Dulbecco's PBS with IBMX) and incubated with the CNP variants in different concentrations. CNP (dilutions were made in PBS with 0.2% BSA). After incubation of 30 min at 37° C. and 5% CO2, the cells were lyzed and cGMP levels were determined with a commercially available cGMP TR-FRET assay (Cisbio, cGMP kit, Cat. No. 62GM2PEB). PEGylated CNP variants were always characterized in comparison with the non-PEGylated version in the same experiment batch. If possible, evaluation of the residual activity was done via the relative EC50-parameter of the resulting dose-response curve (restricted model with common slope).
11i was incubated under physiological conditions (1 mg CNP-38 eq/mL), as described in Example 20. After 7 d, released CNP-38 was isolated by RP-HPLC and analyzed for bioactivity as described in Example 21.

The target in the next series is T2, NPR-C (Homo sapiens, UniProt P17342).
T2 construct: expressed in transfected cells; host or cells: Hek293, lentiviral transduction, CMV promoter, puromycin selection
T2 sequence (P17342 27-541): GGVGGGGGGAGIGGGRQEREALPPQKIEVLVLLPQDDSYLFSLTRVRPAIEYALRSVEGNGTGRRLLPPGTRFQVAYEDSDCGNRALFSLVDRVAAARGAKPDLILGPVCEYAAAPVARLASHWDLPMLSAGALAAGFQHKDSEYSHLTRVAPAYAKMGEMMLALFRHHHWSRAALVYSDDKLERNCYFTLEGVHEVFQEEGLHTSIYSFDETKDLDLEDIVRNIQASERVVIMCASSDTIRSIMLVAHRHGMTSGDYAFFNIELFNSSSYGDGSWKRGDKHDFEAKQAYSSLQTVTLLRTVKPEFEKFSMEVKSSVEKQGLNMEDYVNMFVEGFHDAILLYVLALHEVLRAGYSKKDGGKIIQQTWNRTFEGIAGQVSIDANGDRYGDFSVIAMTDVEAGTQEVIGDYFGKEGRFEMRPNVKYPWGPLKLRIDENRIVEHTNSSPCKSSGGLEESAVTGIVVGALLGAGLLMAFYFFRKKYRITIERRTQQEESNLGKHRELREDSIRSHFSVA
The series is described as follows: NPR-C affinity assay. Format: binding. The following applies: residual NPR-C affinity, NPR-C expressing Hek293 cells, competition with fluorescein-labelled CNP 27d.

Chain of recombinant human NEP (P08473 whole entry): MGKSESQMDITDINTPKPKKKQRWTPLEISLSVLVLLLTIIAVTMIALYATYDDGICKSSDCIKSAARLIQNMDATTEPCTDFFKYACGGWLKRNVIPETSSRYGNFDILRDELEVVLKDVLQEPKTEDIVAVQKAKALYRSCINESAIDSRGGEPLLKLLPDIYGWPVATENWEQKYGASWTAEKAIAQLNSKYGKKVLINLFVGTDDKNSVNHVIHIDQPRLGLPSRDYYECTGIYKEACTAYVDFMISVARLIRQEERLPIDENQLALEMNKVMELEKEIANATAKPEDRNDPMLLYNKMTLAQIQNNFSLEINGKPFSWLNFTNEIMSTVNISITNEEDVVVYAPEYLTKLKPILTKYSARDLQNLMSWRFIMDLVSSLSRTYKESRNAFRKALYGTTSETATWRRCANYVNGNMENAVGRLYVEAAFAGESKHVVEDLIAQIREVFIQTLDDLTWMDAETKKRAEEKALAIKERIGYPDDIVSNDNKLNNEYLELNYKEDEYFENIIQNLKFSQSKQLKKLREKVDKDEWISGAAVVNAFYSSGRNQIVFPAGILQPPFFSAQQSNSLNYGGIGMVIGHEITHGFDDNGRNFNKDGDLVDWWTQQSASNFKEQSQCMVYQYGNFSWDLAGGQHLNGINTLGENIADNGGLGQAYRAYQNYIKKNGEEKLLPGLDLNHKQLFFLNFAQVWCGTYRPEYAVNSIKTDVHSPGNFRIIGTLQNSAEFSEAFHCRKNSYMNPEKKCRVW
Method for recombinant human NEP: In order to determine the in vitro stability of various CNP variants including different peptide chain lengths and PEGylations using different PEGylation sites and PEG molecules in the presence of Neutral Endopeptidase (NEP), a NEP digest assay was established. This assay monitored the decrease of the non-digested CNP variant (normalized with the internal standard PFP) over time in reference to the t0-time point.
In detail, recombinant human NEP (2.5 μg/mL final concentration) and the standard pentafluorophenol (PFP; 40 μg/mL final concentration) were added to the CNP variant (100 μg CNP equivalents/mL) in digest buffer (50 mM Tris-HCl, pH 7.4, 10 mM NaCl). The solution was incubated at 37° C. and 500 rpm for up to 4 days. Samples were taken at different time intervals. The reaction was stopped by a combined reduction and heat denaturation adding TCEP (tris(2-carboxyethyl)phosphine; 25 mM final concentration) and incubating the mixture at 95° C., 500 rpm for 5 minutes. The resulting reaction products were assigned using HPLC-MS. The half life of each CNP variant was calculated via the ratio change in the HPLC-UV peak areas of CNP and PFP over time.

Consider `CC[C@H](C)[C@@H]1NC(=O)[C@H](CCCNC(=N)N)NC(=O)[C@H](CC(=O)O)NC(=O)[C@H](CC(C)C)NC(=O)[C@H](CCCCN)NC(=O)[C@H](CC(C)C)NC(=O)CNC(=O)[C@H](Cc2ccccc2)NC(=O)[C@@H](NC(=O)CNC(=O)[C@H](CCCCN)NC(=O)[C@H](CO)NC(=O)[C@H](CC(C)C)NC(=O)CNC(=O)[C@H](CCCCN)NC(=O)[C@H](CCCCN)NC(=O)[C@H](CC(N)=O)NC(=O)[C@H](C)NC(=O)CNC(=O)[C@H](CCCCN)NC(=O)[C@H](Cc2ccc(O)cc2)NC(=O)[C@H](CCCCN)NC(=O)[C@H](CCCNC(=N)N)NC(=O)[C@H](C)NC(=O)[C@H](CC(N)=O)NC(=O)[C@@H]2CCCN2C(=O)[C@H](Cc2c[nH]cn2)NC(=O)[C@H](CCC(=O)O)NC(=O)[C@H](CCC(N)=O)NC(=O)[C@@H](N)CC(C)C)CSSC[C@@H](C(=O)O)NC(=O)CNC(=O)[C@H](CC(C)C)NC(=O)CNC(=O)[C@H](CO)NC(=O)[C@H](CCSC)NC(=O)[C@H](CO)NC(=O)CNC1=O` [CNP-38, reference compound], for which, in series [1] (cynomolgus monkey, in vivo, sc, 40 ug/kg), the “Half-life (mean)” value stood at 6.6 min. Also, the half-life in series [1] (male, cynomolgus monkey, in vivo, sc, 40 ug/kg) was about 7 min. Further, the tolerability result in series [1] (single s.c. 40 μg/kg) is “well tolerated”. Besides, the HR entry in series [2] was “not impacted”. Further, in series [2] (1 to 48 hours postdose), the “MAP versus vehicle at the remaining ten time points” value is “no difference in MAP”. For the same compound, in series [2] (5, 15 and 30 min post dose, CNP-38: 3 of 4 animals), the “change in MAP compared to predose” value was “significant decrease in MAP”. In addition, the MAP in series [2] (5 min post dose) amounted to 102.0 ± 7.5 mmHg; in series [2] (15 min post dose), 89.5 ± 29.4 mmHg; in series [2] (30 min post dose), 99.5 ± 25.2 mmHg; in series [2] (predose) it was 106.8 ± 13.4 mmHg.
Turning to “CNP: natriuretic peptide CNP injected in healthy volunteers (Igaki et al.)”, in series [3], the heart rate result is “significant increase in heart rate”; the “systolic and diastolic blood pressure” value was “transient but significant decrease in both systolic and diastolic blood pressure”.
Take “Permanent Lys16 CNP-34 PEG 5 kDa Conjugate [Compound 17e]”: on recombinant human NEP, the half-life is 54.2 h.
Consider “Permanent Lys22 CNP-34 PEG 5 kDa Conjugate [Compound 18e]”, for which the half-life at recombinant human NEP is 38.9 h.
For the compound “Permanent Lys26 CNP-38 PEG 5 kDa Conjugate [Compound 19e]”, the half-life at recombinant human NEP was 62.8 h. The “EC50 compound/EC50 CNP-38” value on NPR-B receptor is listed as over 100. Besides, the “IC50 of PEGylated CNP-38/IC50 CNP-38” value on NPR-C came out at 1.1.
